Test results taken from paper PMC8571031, “Stimulation of Ca^2+‐ATPase Transport Activity by a Small‐Molecule Drug” (Chemmedchem, 2021).

Target: T1, sarco(endo)plasmic reticulum Ca2+-ATPase (SERCA1a isoform) (Oryctolagus cuniculus, UniProt P04191)
T1 construct: gene ATP2A1; purified SERCA1a from rabbit skeletal muscle SR in reconstituted proteoliposomes; native SR vesicles for the EC50
Assay: SSM electrical measurement of ATP-induced charge translocation (activation); EC50 on native SR vesicles, direct action confirmed with purified SERCA1a proteoliposomes
Format: biochemical

T1 sequence (P04191 1-993): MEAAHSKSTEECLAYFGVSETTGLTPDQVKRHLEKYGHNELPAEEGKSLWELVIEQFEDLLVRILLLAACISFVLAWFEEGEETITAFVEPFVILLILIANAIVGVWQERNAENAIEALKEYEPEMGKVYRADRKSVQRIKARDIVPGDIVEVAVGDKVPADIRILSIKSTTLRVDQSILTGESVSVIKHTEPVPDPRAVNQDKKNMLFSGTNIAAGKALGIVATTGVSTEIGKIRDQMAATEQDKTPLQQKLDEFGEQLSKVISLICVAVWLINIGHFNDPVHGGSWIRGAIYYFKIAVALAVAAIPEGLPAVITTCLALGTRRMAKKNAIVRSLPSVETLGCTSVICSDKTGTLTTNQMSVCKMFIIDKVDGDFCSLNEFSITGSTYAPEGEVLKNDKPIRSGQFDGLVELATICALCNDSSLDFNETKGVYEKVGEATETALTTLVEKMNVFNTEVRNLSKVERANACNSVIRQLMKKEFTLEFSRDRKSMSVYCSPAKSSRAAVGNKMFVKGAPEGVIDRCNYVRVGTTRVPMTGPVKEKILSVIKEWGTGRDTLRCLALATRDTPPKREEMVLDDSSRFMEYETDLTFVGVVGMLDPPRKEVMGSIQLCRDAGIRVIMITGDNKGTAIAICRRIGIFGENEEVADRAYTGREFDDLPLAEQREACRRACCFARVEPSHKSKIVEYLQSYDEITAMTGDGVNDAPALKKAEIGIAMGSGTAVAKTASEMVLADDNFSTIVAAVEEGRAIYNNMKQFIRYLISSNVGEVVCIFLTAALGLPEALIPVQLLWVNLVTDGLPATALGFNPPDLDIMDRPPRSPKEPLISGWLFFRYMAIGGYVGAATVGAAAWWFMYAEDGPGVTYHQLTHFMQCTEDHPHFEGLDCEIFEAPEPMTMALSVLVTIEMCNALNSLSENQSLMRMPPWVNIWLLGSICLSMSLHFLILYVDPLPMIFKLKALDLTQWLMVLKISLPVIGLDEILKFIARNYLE

EC50: 6 ± 0.3 µM
Compound: Cc1ccc2cccc(NC(=O)c3ccc(OC(C)C)cc3)c2n1 [CDN1163]
